≈ marks a conversion by molar mass, not a printed value. Where “and” joins values, the source holds several entries; their conditions need not be identical. Equal values may be shown once.
Experiments:
[1] = target: T1, recombinant HIV-1 Integrase (strand transfer) (Human immunodeficiency virus type 1 group M subtype B, UniProt P04585); test: HIV integrase strand transfer inhibition; format: biochemical; settings: for IC50: 100 nM integrase, 37 °C, 2 h
T1 construct: The recombinant HIV-1 Integrase (In) was isolated from the Rosetta Escherichia coli producer strain; made in house; host or cells: Escherichia coli Rosetta
Method: The recombinant HIV-1 Integrase (In) was isolated from the Rosetta Escherichia coli producer strain and purified without the addition of a detergent as described previously. Radioactive ^32P label was introduced at the 5′-end of the oligonucleotide. Testing of the compounds was performed according to the previously published procedure. Briefly: 5 nM ^32P-labeled 21 mer DNA duplex (5′-[…]-3′ and 5′-[…]-3′) for 3′-processing reaction or 10 nM 19/21 mer DNA duplex (5′-[…]-3′ and 5′-[…]-3′) for strand transfer was incubated in 20 µL of the buffer (20 mM HEPES, pH 7.2, 7.5 mM MgCl2, 1 mM DTT) in the presence of 100 nM integrase and increasing concentrations of the inhibitor at 37 °C for 2 h. The reaction products were assayed by 20% polyacrylamide gel electrophoresis (PAGE) with 7 M urea. The result was visualized by radioautography on a Typhoon FLA 9500 PhosphorImager (GE Healthcare Technologies, Chicago, IL, USA). The counting of radioautograms was performed using QuantityOne 4.6.6 software (Bio-Rad, Hercules, CA, USA). Calculation of IC50 parameters was carried out by Prism 8.0.1 software (GraphPad Software, San-Diego, CA, USA).

[2] = Water solubility and stability of hydrazones and alginate microgels; format: physicochemical; settings: preliminary studies
Method: The expected mass loading of microgels was 33% (5.0 mg of alginate + 2.5 mg of a sample). A solution of sodium alginate was prepared at a concentration of 3.0 mg/mL. 1.700 mL of sodium alginate solution and 3.283 mL of distilled water were added to the beaker and an equimolar copper sulfate solution (17.0 μL) was added dropwise and stirred for 30 min. Then, concentrated hydrochloric acid was dissolved in 250 μL of the polymer solution for 20 min while heating to 50 °C until the solid residue was completely dissolved. The resulting solution of I was added dropwise to the Cu^2+–alginate microgel solution and stirred for 24 h; then, the acid was neutralized with a concentrated NaOH aq. solution. The resulting solutions were purified using flow dialysis. Microgels with substances were lyophilized until a fully dry pinkish powder was obtained.

Row | SMILES | inhibition of strand transfer, in words [1] | IC50 [1] | solubility [2] [mg/mL]
1 | O=[N+]([O-])c1cccc(/C=N/Nc2ccc3cccnc3c2O)c1 [III, 7-(3-Nitrobenzylidenohydrazinyl)-8-hydroxyquinoline] | weak activity | 190 ± 60 µM | –
2 | Oc1c(N/N=C/c2ccc(F)cc2)ccc2cccnc12 [VI, 7-(4-Fluorobenzylidenohydrazinyl)-8-hydroxyquinoline] | – | ~40 µM and 40 µM | –
3 | Oc1c(N/N=C/c2ccccc2)ccc2cccnc12 [Compound I, 7-(2-Benzylidenohydrazinyl)-8-hydroxyquinoline] | weak activity | 160 ± 50 µM | ~2.3 (≈ 8.74 mM)
4 | Oc1c(N/N=C/c2ccc(Br)c(Br)c2)ccc2cccnc12 [V, 7-(3,4-Dibromobenzylidenohydrazinyl)-8-hydroxyquinoline] | ineffective | > 200 µM | –
5 | COc1ccc(/C=N/Nc2ccc3cccnc3c2O)cc1 [IV, 7-(4-Methoxybenzylidenohydrazinyl)-8-hydroxyquinoline] | weak activity | 150 ± 50 µM | –
6 | O=[N+]([O-])c1ccc(/C=N/Nc2ccc3cccnc3c2O)cc1 [II, 7-(4-Nitrobenzylidenohydrazinyl)-8-hydroxyquinoline] | ineffective | > 200 µM | –
